Non-standard residues stand in square brackets, D forms with d. Residues, ends and D or L forms follow the SMILES beside them. *: point of attachment. Nphe = O=C(O)CNCc1ccccc1; Bz = O=C(c1ccccc1)*
Assays:
[1] = Gelation test in solvents at room temperature; type: physicochemical; parameters: key to Gelation test result: I, insoluble; P, precipitating; S, soluble at ~20 mg/mL; G, gel at room temperature; number is minimum gelation concentration; settings: for preliminary MGC (stable gel) / Gelation result / concentration of slightly unstable or partial gel (UG): Table 3
Procedure: (§1) Gelation tests were performed by adding incremental amounts of compounds to a solvent or solvent system at room temperature and observing the results (i.e., gel formation, solubility of compounds, insolubility of compounds, or formation of a precipitate). […] The term “precipation” means that the compound dissolves upon heating and sonicating, however, it crashes out of solution when the heat is removed.
(§2) After the compounds were synthesized, they were screened for gelation properties. […] For the compounds with new chiral centers, they formed gels in aqueous environment preferentially.

[2] = Gelation test in solvents at room temperature; type: physicochemical; parameters: key: I, insoluble; P, precipitating; S, soluble at ~20 mg/mL; G, gel at room temperature; number is minimum gelation concentration; settings: Table 3
Procedure: as §1, §2

[3] = Gelation test in solvents at room temperature; type: physicochemical; parameters: key: S, soluble (starting test at 20 mg/mL); I, insoluble; P, precipitate; G, stable gel, the numbers after G are preliminary MGCs in mg/mL; UG, slightly unstable gels or partial gels, concentrations are 20 mg/mL unless otherwise noted; settings: Table 3
Procedure: as §1, §2

[4] = DMSO:H2O (1:1), room temperature
[5] = DMSO:H2O (1:2), room temperature
[6] = EtOH:H2O (1:1), room temperature
[7] = EtOH:H2O (1:2), room temperature

Structure (SMILES)	Gelation result ([1]; EtOH)	concentration of slightly unstable or partial gel (UG) ([1]; Water)	Gelation result ([2]; Hexane)	Gelation result ([3]; DMSO:H2O 1:2)	Gelation result ([3]; EtOH:H2O (1:2))	Gelation result ([3]; Water)	Gelation test result [1, 4]	Gelation test result [1, 5]	Gelation test result ([1]; EtOH, room temperature)	Gelation test result [1, 6]	Gelation test result [1, 7]	Gelation test result ([1]; H2O, room temperature)	Gelation test result ([1]; Hexane, room temperature)	melting point	Gelation result ([3]; DMSO:H2O 1:1)	other results
COc1ccc(C(C(=O)NC2CCCCC2)N(Cc2ccccc2)C(C)=O)cc1 (racemic) [Compound 37]	S (S, soluble (starting test at 20 mg/mL))	17000 µg/mL	I	P	G	UG	–	–	–	–	–	–	–	–	–	preliminary MGC (stable gel) ([1]; EtOH:H2O (1:2)): 15.0 mg/mL
COc1ccc(C(C(=O)NC2CCCCC2)N(C(C)=O)[C@H](C)c2ccccc2)cc1 (single isomer, unassigned) [Compound 38a]	S (S, soluble (starting test at 20 mg/mL))	17000 µg/mL	–	UG	–	UG	–	–	–	–	–	–	–	–	–	concentration of slightly unstable or partial gel (UG) ([1]; DMSO:H2O 1:2): 18000 µg/mL; Gelation result ([2]; EtOH:H2O (1:2)): I; Gelation result ([3]; Hexane): P
COc1ccc(C(C(=O)NC2CCCCC2)N(C(C)=O)[C@H](C)c2ccccc2)cc1 (single isomer, unassigned) [Compound 38b]	–	–	–	–	P	G	–	–	–	–	–	–	–	–	–	preliminary MGC (stable gel) ([1]; Water): 21.0 mg/mL; Gelation result ([2]; DMSO:H2O 1:2): I
CC(=O)N(CC(=O)NC1CCCCC1)Cc1ccccc1 [Compound 14, N-benzyl-N-(2-(cyclohexylamino)-2-oxoethyl)acetamide]	–	–	–	–	–	–	S (S, soluble at ~20 mg/mL)	P	S (S, soluble at ~20 mg/mL)	S (S, soluble at ~20 mg/mL)	P	P	I^(a)	122 to 124 °C	–	–
O=C(CN(Cc1ccccc1)C(=O)c1ccccc1)NC1CCCCC1 [Compound 16, N-benzyl-N-(2-(cyclohexylamino)-2-oxoethyl)benzamide]	–	–	–	–	–	–	P	P	P	P	P	I	I	104 to 106 °C	–	–
C[C@H](c1ccccc1)N(CC(=O)NC1CCCCC1)C(=O)c1ccc(Br)cc1 [Compound 19, (R)-4-bromo-N-(2-(cyclohexylamino)-2-oxoethyl)-N-(1-phenylethyl)benzamide]	–	–	–	–	–	–	G	P	S (S, soluble at ~20 mg/mL)	P	P	P	S^(c) (S, soluble at ~20 mg/mL)	140 to 142 °C	–	minimum gelation concentration [1, 4]: 20.0 mg/mL
CCOC(=O)CNC(=O)CN(Cc1ccccc1)C(=O)c1ccccc1 [Compound 22, Ethyl 2-(2-(N-benzylbenzamido)acetamido)acetate] (Bz-[Nphe]-Gly-OEt)	–	–	–	–	–	–	S (S, soluble at ~20 mg/mL)	P	P	P	P	S (S, soluble at ~20 mg/mL)	S (S, soluble at ~20 mg/mL)	–	–	–
CC1(C)OCC(CN(CC(=O)NC2CCCCC2)C(=O)c2ccc(Br)cc2)O1 (stereo not drawn) [Compound 27]	–	–	–	G	P	–	–	–	–	–	–	–	–	–	G	preliminary MGC (stable gel) ([1]; DMSO:H2O 1:1): 20.0 mg/mL; preliminary MGC (stable gel) ([1]; DMSO:H2O 1:2): 20.0 mg/mL; Gelation result ([1]; Hexane): S (S, soluble (starting test at 20 mg/mL)); Gelation result ([1]; Water): S (S, soluble (starting test at 20 mg/mL)); Gelation result ([3]; EtOH): P
O=C(CN(Cc1ccccc1)C(=O)c1ccc(C(=O)N(CC(=O)NC2CCCCC2)Cc2ccccc2)cc1)NC1CCCCC1 [Compound 29]	–	20000 µg/mL	I	G	P	UG	–	–	–	–	–	–	–	–	P	preliminary MGC (stable gel) ([1]; DMSO:H2O 1:2): 20.0 mg/mL; Gelation result ([3]; EtOH): UG
CCOC(=O)CNC(=O)CN(Cc1ccccc1)C(=O)c1ccc(C(=O)N(CC(=O)NCC(=O)OCC)Cc2ccccc2)cc1 [Compound 30]	S (S, soluble (starting test at 20 mg/mL))	–	I	P	P	–	–	–	–	–	–	–	–	–	P	Gelation result ([2]; Water): I
